Experiments:
[1] = molecular target: T1, CotA / bilirubin oxidase (BOD) from Bacillus pumilus (Bacillus pumilus, UniProt A8FAG9); assay: spectrophotometric oxidation at […] nm, Michaelis-Menten fit; format: biochemical; conditions: optimal pH (assay pH 6.8), 37 °C, McIlvaine citrate-phosphate buffer
[2] = molecular target: T1, CotA / bilirubin oxidase (BOD) from Bacillus pumilus; assay: spectrophotometric at […] nm; format: biochemical; conditions: optimal pH (assay pH 7.2, 50 mM sodium phosphate), 37 °C

Row | SMILES | Km [1] | Km [2]
1 | COc1cccc(OC)c1O [2,6-DMP, 2,6-dimethoxyphenol] | 822 µM | –
2 | C=CC1=C(C)/C(=C/c2[nH]c(Cc3[nH]c(/C=C4\NC(=O)C(C)=C4C=C)c(C)c3CCC(=O)O)c(CCC(=O)O)c2C)NC1=O [unconjugated bilirubin] | – | 22 µM

Reference: paper PMC3724473 (Biosensors & bioelectronics, 2012)
